Source: patent EP1306084A1, “Compositions for the control of parasitic infestations in fish” (Alpharma AS, priority 1998, dated 1999)

What was measured:
[1] = Adverse or side effects observed over all trials; assay type: in vivo, fish; settings: injection, bath solution or oral treatment; all dosages examined
Source text: This is in regard to all the dosages that have been examined and the various administration methods which have been used.

[2] = test system: sea lice; assay: Injection of hexaflumuron in multivalent vaccine formulations, sea lice counts after sea water transfer (Example 10); assay type: in vivo, salmon (Salmo salar)
Protocol: (§1) The treatment dosage was 9 mg hexaflumuron per kg fish per day for 10 days. This is indicated by "Groups/Timepoints" in the figure; • Figure 2 relates to the trial in Example 2 that was carried out on Atlantic salmon (Salmo salar). […] The treatment dosage varied between 3 - 9 mg hexaflumuron and 9- 12 mg fluazuron per kg fish per day for 7 days. This is indicated by "Groups/Timepoints" in the diagram. […] The treated groups are compared to an untreated control group. The treatment dosage was 4 mg hexaflumuron per kg fish per day for 5 days. This is indicated by "Groups/Timepoints" in the figure. Cage 2 = controls, Cage 4-6 = treated groups, 16.6.97 = time point for sea transfer and 5.8.97= controls treated by bathing with deltamethrin; • Figure 4 relates to the trial described in Example 5, which was carried out on sea trout (Salmo trutta). […] The treated groups are compared with an untreated control group. The dosage for oral treatment was 4 mg hexaflumuron per kilo fish per day for 5 days, and 5 ppm hexaflumuron as a 30 minute bath treatment. This is indicated by "Groups/Timepoints" in the figure. Cage 1.4 = Controls, cage 1.3 = Oral treatment, cage 1.2 = Bath treatment. […] The treated groups are compared with an untreated control group, and one group that has been treated orally with teflubenzuron (10 mg/kg of teflubenzuron per kg fish per day for 7 days). The dosage for oral treatment was 5.6 mg hexaflumuron per kg fish per day for 7 days, and 5 ppm hexaflumuron as a 30 minute bath treatment. […] End of treatment: 22.10.97, Sea transfer: 23.10.97. T1 = 3 weeks post end of treatment, T2 = 5 weeks post end of treatment, T3 = 9 weeks post end of treatment, T4 = 12 weeks post end of treatment; • Figure 6 relates to the trial in Example 6 at time points 4-6, with the same trial parameters as for Figure 5. […]
Following transfer to sea water, the fish were exposed to natural sea lice infestation. Every three weeks lice were counted on 10 fish of each group to assess if the number of lice between the various groups differed. […]

[3] = test system: sea lice; assay: Oral or bath treatment in freshwater before sea transfer, sea lice counts after natural infection (Example 5); assay type: in vivo, sea trout (Salmo trutta); settings: oral 4 mg per kg daily for 5 days or bath 5 ppm for 30 minutes
Protocol: as §1
About 300 sea trout (Salmo trutta) of an average weight of 160 grams were divided into three groups of 100 fish each. […] Lice from 6-10 fish from each cage were counted every third week to assess whether there was any difference in the number of lice between the cages. […]

[4] = Chemical analysis of muscle/skin after injection of hexaflumuron formulations (Example 8); assay type: in vivo, salmon smolt; settings: 50 mg/kg; for concentration at 5232 h: fish, muscle/skin, T8 (218 days after injection)
Protocol: Tissue samples (muscle/skin) for chemical analysis were collected from five fish injected with the various hexaflumuron formulations at each sample point in time throughout the trial. […] At sea water transfer, the muscle/skin concentrations in the two other hexaflumuron groups (Apoject 1-Fural, animal oil) varied between 1 and 2.5 µg hexaflumuron/g tissue.

[5] = test system: sea lice; assay: Injection of 9 active substances, protective effect against sea lice (Example 8); assay type: in vivo, salmon smolt; settings: for lice on average: T3, 70 days after injection, about 50 mg/kg, control group 5.6
Protocol: The treatment dosage was 9 mg hexaflumuron per kg fish per day for 10 days. This is indicated by "Groups/Timepoints" in the figure; • Figure 2 relates to the trial in Example 2 that was carried out on Atlantic salmon (Salmo salar). […] The treatment dosage varied between 3 - 9 mg hexaflumuron and 9- 12 mg fluazuron per kg fish per day for 7 days. This is indicated by "Groups/Timepoints" in the diagram. […] The treated groups are compared to an untreated control group. The treatment dosage was 4 mg hexaflumuron per kg fish per day for 5 days. This is indicated by "Groups/Timepoints" in the figure. Cage 2 = controls, Cage 4-6 = treated groups, 16.6.97 = time point for sea transfer and 5.8.97= controls treated by bathing with deltamethrin; • Figure 4 relates to the trial described in Example 5, which was carried out on sea trout (Salmo trutta). […] The treated groups are compared with an untreated control group. The dosage for oral treatment was 4 mg hexaflumuron per kilo fish per day for 5 days, and 5 ppm hexaflumuron as a 30 minute bath treatment. This is indicated by "Groups/Timepoints" in the figure. Cage 1.4 = Controls, cage 1.3 = Oral treatment, cage 1.2 = Bath treatment. […] The treated groups are compared with an untreated control group, and one group that has been treated orally with teflubenzuron (10 mg/kg of teflubenzuron per kg fish per day for 7 days). The dosage for oral treatment was 5.6 mg hexaflumuron per kg fish per day for 7 days, and 5 ppm hexaflumuron as a 30 minute bath treatment. […] End of treatment: 22.10.97, Sea transfer: 23.10.97. T1 = 3 weeks post end of treatment, T2 = 5 weeks post end of treatment, T3 = 9 weeks post end of treatment, T4 = 12 weeks post end of treatment; • Figure 6 relates to the trial in Example 6 at time points 4-6, with the same trial parameters as for Figure 5. T5 = 15 weeks post end of treatment, T6 = 17 weeks post end of treatment. Cage 3 and 4 were treated by bath with deltamethrin after sea lice counting at T4 (12.01.98); • Figure 7 relates to the trial described in Example 7 where salmon were injected on 17.12.97 with two formulations (groups L and R, respectively) of hexaflumuron and a vaccine formulation without hexaflumuron (control). […] The vaccinated fish was transferred to sea water on 09.01.98; • Figure 8 summarises the trial of Example 8 where salmon smolts were injected with 9 different active substances on 08.07.98. Only results for Moxidectin (Mox.), Lufenuron (Luf.) and hexaflumuron in Apoject 1-Fural (Hex.Apo) and in animal oil (Hex.oil) are shown, and • Figure 9 summarises the trial described in Example 10 where salmon were injected on 03.12.97 with 3 different formulations of hexaflumuron (Hexa 1, Hexa 2 and Hexa 3). The fish were transferred to sea water at T0.
In this trial 9 different active substances were tested for protective effect against sea lice. 1,200 salmon smolt were, prior the start of the trial, vaccinated with a commercial vaccine, ALPHA JECT 5100.
One week after sea water transfer the salmon was divided into 12 groups and injected with different formulations of the 9 different active substances. In parallel with the 12 groups, a 13th group comprising 50 fish of the same origin and size was injected with a saline (PBS) solution without active substance. This group served as negative control/reference group in respect of sea lice infestations. The groups were marked by fin cutting and distributed randomly into 3 cages.
The active substances that were used as injection were hexaflumuron, buprofezin, diflubenzuron, fluazuron, lufenuron, ivermectin, doramectin, moxidectin and milbemycin oxime, respectively. All the fish were injected with 0.2 ml of the various injection formulations. Hexaflumuron, buprofezin, fluazuron, lufenuron and diflubenzuron were administered at a dosage of about 50 mg/kg whereas ivermectin, doramectin and moxidectin were administered at a dosage of 0.2 mg/kg (recommended dosage for mammals). […]

[6] = injected in vaccine formulations

O=C(NC(=O)c1c(F)cccc1F)Nc1cc(Cl)c(OC(F)(F)C(F)F)c(Cl)c1 [hexaflumuron]
adverse or side effects [1]: No adverse or side effects have been observed
number of sea lice versus control ([2]; 9 and 12 weeks after sea water transfer (T3 and T4), 3 formulations, 25 mg per ml vaccine): significantly lower
protection against recurrent infestation after injection [2, 6]: ≥ 18 weeks
protection against recurrent infestation after sea water transfer [2, 6]: at least 12 weeks
protection after transfer to sea [3]: at least 8 weeks
number of lice larger than Chalimus II versus control ([3]; 2, 5 and 8 weeks after sea transfer): significantly lower
hexaflumuron concentrations in muscle/skin ([4]; T3, injected in an aqueous suspension (PBS)): below 0.02 µg per g
concentration at 5232 h ([4]; Apoject 1-Fural group): 260 ng/g
concentration at 5232 h ([4]; animal oil group): 270 ng/g
protection against sea lice ([5]; T2, 40 days after injection, hexaflumuron, lufenuron about 50 mg/kg, moxidectin 0.2 mg/kg): showed protection
lice on average ([5]; formulated in Apoject 1-Fural): 0
lice on average ([5]; formulated in animal oil): 0.8
protection against sea lice ([5]; T3, hexaflumuron in an aqueous suspension (PBS)): no protection
number of sea lice versus control group ([5]; T8 (218 days after injection), hexaflumuron in Apoject 1-Fural, animal oil): significantly lower
significant protection against sea lice until and including T10, time after injection ([5]; hexaflumuron formulated in Apoject 1-Fural or in animal oil): 9 months
prophylactic effect against sea lice ([5]; two groups of fish injected with hexaflumuron): ≤ 10 months
